Entries after “also recorded” stand apart in the source; their conditions may differ.
How the values were obtained:
[1] = system: male AR-97Q mice; test: Administration of Leuprorelin to male AR-97Q mice: symptoms (body weight, rotarod task, cage activity, survival rate, body size, foot prints); format: in vivo, mouse
Description: We analyzed rotarod task of mice by an Economex Rotarod (Colombus Instruments, USA) weekly during the light phase of the 12 h light/12 h dark cycle as described previously (Adachi et al., 2001). We performed three trials, and recorded the longest duration on the rod for every mouse. We stopped the timer when the mouse fell from the rod or after an arbitrary limit of 180 seconds. We measured cage activity while each mouse was in a transparent acrylic cage (16×30×14 cm). We used an AB system (Neuroscience, Japan) with an infrared ray sensor monitor to measure spontaneous motor activity. We automatically totaled and recorded all measurements for 24 hours per week at 10-min intervals. […] Leuprorelin was administrated as follows. 100 μg of Leuprorelin acetate was suspended in a solution containing D-mannitol, which was subcutaneously injected to the mice every two weeks from five weeks of age until the end of the analysis. To the control group, only suspension was administrated. […] That is to say, motor impairment assessed by rotarod and cage activity was far milder in the Leuprorelin-administrated male AR-97Q mice as compared with the control group, and motor dysfunction was hardly shown in the Leuprorelin-administrated group (FIGS. 5A, B, C and D).

[2] = Serum testosterone radioimmunoassay in Leuprorelin-administered male AR-97Q mice; format: in vivo, mouse; conditions: #4-6, n=4
Description: Leuprorelin was administrated as follows. 100 μg of Leuprorelin acetate was suspended in a solution containing D-mannitol, which was subcutaneously injected to the mice every two weeks from five weeks of age until the end of the analysis. To the control group, only suspension was administrated. […] That is to say, motor impairment assessed by rotarod and cage activity was far milder in the Leuprorelin-administrated male AR-97Q mice as compared with the control group, and motor dysfunction was hardly shown in the Leuprorelin-administrated group (FIGS. 5A, B, C and D).

[3] = The Leuproride Study Group 1984; cited from earlier work
[4] = system: female AR-97Q mice; test: Administration of testosterone to female AR-97Q mice: symptoms (body weight, rotarod task, cage activity, survival rate, body size, foot prints); format: in vivo, mouse
Description: We analyzed rotarod task of mice by an Economex Rotarod (Colombus Instruments, USA) weekly during the light phase of the 12 h light/12 h dark cycle as described previously (Adachi et al., 2001). We performed three trials, and recorded the longest duration on the rod for every mouse. We stopped the timer when the mouse fell from the rod or after an arbitrary limit of 180 seconds.
We measured cage activity while each mouse was in a transparent acrylic cage (16×30×14 cm). We used an AB system (Neuroscience, Japan) with an infrared ray sensor monitor to measure spontaneous motor activity. We automatically totaled and recorded all measurements for 24 hours per week at 10-min intervals.
Male AR-97Q mice and their normal littermates were castrated or sham-operated via the abdominal route under ketamine-xylazine anesthesia (50 mg/kg ketamine and 10 mg/kg xylazine, i.p.) at 4 weeks of age. […] The control mice were given the same amount of sesame oil.

[5] = Serum testosterone radioimmunoassay in testosterone-administered female AR-97Q mice; format: in vivo, mouse; conditions: testosterone-administered female 97Q mice, control mice undetectable low level

For `CCNC(=O)[C@@H]1CCCN1C(=O)[C@H](CCCNC(=N)N)NC(=O)[C@H](CC(C)C)NC(=O)[C@@H](CC(C)C)NC(=O)[C@H](Cc1ccc(O)cc1)NC(=O)[C@H](CO)NC(=O)[C@H](Cc1c[nH]c2ccccc12)NC(=O)[C@H](Cc1c[nH]cn1)NC(=O)[C@@H]1CCC(=O)N1` [Leuprorelin], the rotarod task ([1]; FIG. 5B, #7-8, Leuprorelin-administered group vs control (vehicle) group, n=6) was “significant difference”, the cage activity ([1]; FIG. 5C, #7-8, Leuprorelin-administered group vs control (vehicle) group, n=6) was “significant difference” and the body size ([1]; FIG. 5E, #4-6, 12-week-old, control group showed severe muscular atrophy) was “normal”. For the same molecule, the symptoms ([1]; male AR-97Q mice, 100 μg Leuprorelin acetate s.c. every two weeks from five weeks of age, vs control group (suspension only)) was “remarkable improvement”, the motor dysfunction ([1]; male AR-97Q mice, 100 μg s.c. every two weeks) was “hardly shown” and the “motor impairment assessed by rotarod and cage activity” value ([1]; male AR-97Q mice, 100 μg s.c. every two weeks, compared with the control group) was “far milder”. For the same molecule, the “reduction in body size” value ([1]; male AR-97Q mice, FIG. 5E, #4-6, 12-week-old) was “remarkably improved”, the “motor weakness (foot prints)” value ([1]; male AR-97Q mice, FIG. 5F, #4-6, 12-week-old) was “improved” and the serum testosterone value [2] was “undetectable low level”. For the same molecule, the “effect of inhibiting the secretion of testosterone, relative to castration” value [3] was “same level”.
In the case of `CCCCCCC(=O)O[C@H]1CC[C@H]2[C@@H]3CCC4=CC(=O)CC[C@]4(C)[C@H]3CC[C@]12C` [testosterone, testosterone enanthate], the body weight ([4]; FIG. 6A, #7-8, testosterone-administered group vs testosterone-administered normal mice or control (oil) group, p<0.0001) is reported as “significant difference”, the rotarod task ([4]; FIG. 6B, #7-8, testosterone-administered group vs testosterone-administered normal mice or control (oil) group, p<0.0001) is reported as “significant difference” and the cage activity ([4]; FIG. 6C, #2-6, testosterone-administered group vs testosterone-administered normal mice or control (oil) group, p<0.0001) is reported as “significant difference”. The survival rate ([4]; FIG. 6D, #7-8, testosterone-administered group vs testosterone-administered normal mice or control (oil) group, p<0.0001) was “significant difference”, the “symptoms, pathologic findings and nuclear localization of the mutant protein” value ([4]; female AR-97Q mice, 20 μg testosterone enanthate s.c. weekly from 4 weeks of age, vs sesame-oil control group) was “drastically exacerbated” and the weight loss ([4]; female AR-97Q mice, FIG. 6A, control group hardly showed weight loss) was “significant weight loss”. The life-span ([4]; female AR-97Q mice, FIG. 6D) was “affected”, the “muscle atrophy and body size” value ([4]; female AR-97Q mice, FIG. 6E, #2-6, 14-week-old) was “marked muscle atrophy and reduction in body size; also recorded: severe muscular atrophy” and the foot print analysis ([4]; female AR-97Q mice, FIG. 6F, not detected in sesame oil-administered mice) was “exhibited motor weakness and dragged their hind legs”. The “motor impairment assessed by rotarod and cage activity” value ([4]; female AR-97Q mice, compared with control mice, FIGS. 6B and C) was “significantly worsened”, the serum testosterone levels ([5]; line #2-6, n=3) was 158.0 ± 70.7 ng/dL and the serum testosterone levels ([5]; line #7-8, n=4) was 305.3 ± 182.3 ng/dL.
